# Columns and labels:
# Staphylococcus aureus [1] = assay: Antibacterial activity against wild type Staphylococcus aureus 4557/A assessed as reduction in microbial growth incubated for 24 hrs by microdilution assay; assay type: functional
# Staphylococcus aureus [2] = assay: Antibacterial activity against […] Staphylococcus aureus 4463/A assessed as reduction in microbial growth incubated for 24 hrs by microdilution assay; assay type: functional
# Staphylococcus aureus [3] = assay: Antibacterial activity against wild type Staphylococcus aureus 4904/C assessed as reduction in microbial growth incubated for 24 hrs by microdilution assay; assay type: functional
# Staphylococcus aureus [4] = assay: Antibacterial activity against wild type Staphylococcus aureus 4883/C assessed as reduction in microbial growth incubated for 24 hrs by microdilution assay; assay type: functional
# Staphylococcus aureus [5] = assay: Antibacterial activity against […] Staphylococcus aureus 4460/A assessed as reduction in microbial growth incubated for 24 hrs by microdilution assay; assay type: functional
# Staphylococcus aureus [6] = assay: Antibacterial activity against wild type Staphylococcus aureus 4482/A assessed as reduction in microbial growth incubated for 24 hrs by microdilution assay; assay type: functional
# Staphylococcus aureus [7] = assay: Antibacterial activity against wild type Staphylococcus aureus 4566/A assessed as reduction in microbial growth incubated for 24 hrs by microdilution assay; assay type: functional
# Staphylococcus aureus [8] = assay: Antibacterial activity against wild type Staphylococcus aureus 4504/A assessed as reduction in microbial growth incubated for 24 hrs by microdilution assay; assay type: functional
# Staphylococcus aureus [9] = assay: Antibacterial activity against wild type Staphylococcus aureus 4740/B assessed as reduction in microbial growth incubated for 24 hrs by microdilution assay; assay type: functional
# Staphylococcus aureus [10] = assay: Antibacterial activity against wild type Staphylococcus aureus 4717/B assessed as reduction in microbial growth incubated for 24 hrs by microdilution assay; assay type: functional
# Staphylococcus aureus [11] = assay: Antibacterial activity against wild type Staphylococcus aureus 4738/B assessed as reduction in microbial growth incubated for 24 hrs by microdilution assay; assay type: functional
# Staphylococcus aureus [12] = assay: Antibacterial activity against […] Staphylococcus aureus 4461/A assessed as reduction in microbial growth incubated for 24 hrs by microdilution assay; assay type: functional
# Staphylococcus aureus [13] = assay: Antibacterial activity against wild type Staphylococcus aureus 4679/B assessed as reduction in microbial growth incubated for 24 hrs by microdilution assay; assay type: functional
# Staphylococcus aureus [14] = assay: Antibacterial activity against wild type Staphylococcus aureus 4502/A assessed as reduction in microbial growth incubated for 24 hrs by microdilution assay; assay type: functional
# Staphylococcus aureus [15] = assay: Antibacterial activity against wild type Staphylococcus aureus 4515/A assessed as reduction in microbial growth incubated for 24 hrs by microdilution assay; assay type: functional
# Staphylococcus aureus [16] = assay: Antibacterial activity against wild type Staphylococcus aureus 5079/C assessed as reduction in microbial growth incubated for 24 hrs by microdilution assay; assay type: functional
# Staphylococcus aureus [17] = assay: Antibacterial activity against wild type Staphylococcus aureus 4788/B assessed as reduction in microbial growth incubated for 24 hrs by microdilution assay; assay type: functional
# Staphylococcus aureus [18] = assay: Antibacterial activity against wild type Staphylococcus aureus 78/CF assessed as reduction in microbial growth incubated for 24 hrs by microdilution assay; assay type: functional
# Staphylococcus aureus [19] = assay: Antibacterial activity against wild type Staphylococcus aureus 77/CF assessed as reduction in microbial growth incubated for 24 hrs by microdilution assay; assay type: functional
# Staphylococcus aureus [20] = assay: Antibacterial activity against wild type Staphylococcus aureus 4561/A assessed as reduction in microbial growth incubated for 24 hrs by microdilution assay; assay type: functional
# Staphylococcus aureus [21] = assay: Antibacterial activity against wild type Staphylococcus aureus 4968/C assessed as reduction in microbial growth incubated for 24 hrs by microdilution assay; assay type: functional
# Staphylococcus aureus [22] = assay: microbe, parasite or virus in culture; settings: 4862/C, 24 h
# Description: Antibacterial activity against wild type Staphylococcus aureus 4862/C assessed as reduction in microbial growth incubated for 24 hrs by microdilution assay
# Staphylococcus aureus [23] = assay: microbe, parasite or virus in culture; settings: 4880/C, 24 h
# Description: Antibacterial activity against wild type Staphylococcus aureus 4880/C assessed as reduction in microbial growth incubated for 24 hrs by microdilution assay
# Staphylococcus aureus [24] = assay: microbe, parasite or virus in culture; settings: 5017/C, 24 h
# Description: Antibacterial activity against wild type Staphylococcus aureus 5017/C assessed as reduction in microbial growth incubated for 24 hrs by microdilution assay
# Enterococcus faecalis = assay: Antibacterial activity against Enterococcus faecalis ATCC 29212 = CCM 4224 assessed as inhibition of bacterial growth incubated for 24 hrs by microdilution assay; assay type: functional
# Staphylococcus aureus [25] = assay: Antibacterial activity against Staphylococcus aureus ATCC 29213 = CCM 4223 assessed as inhibition of bacterial growth incubated for 24 hrs by microdilution assay; assay type: functional
# Staphylococcus aureus [26] = assay: Antibacterial activity against Staphylococcus aureus ATCC 29213 = CCM 4223 assessed as inhibition of bacterial growth incubated for 24 hrs in presence of BSA by microdilution assay; assay type: functional
# Escherichia coli [27] = assay: Antibacterial activity against Escherichia coli ATCC 25922 = CCM 3954 assessed as inhibition of bacterial growth incubated for 24 hrs by microdilution assay; assay type: functional
# Escherichia coli [28] = assay: Antibacterial activity against Escherichia coli ATCC 25922 = CCM 3954 assessed as inhibition of bacterial growth incubated for 24 hrs in presence of BSA by microdilution assay; assay type: functional
# Pseudomonas aeruginosa [29] = assay: Antibacterial activity against Pseudomonas aeruginosa ATCC 27853 = CCM 3955 assessed as inhibition of bacterial growth incubated for 24 hrs by microdilution assay; assay type: functional
# [30] = Hemolytic activity in human RBC assessed as haemoglobin release measured after 3 hr; assay type: toxicity, cell-based, Erythrocyte; settings: red blood cells (erythrocytes)
# [31] = Gradient chromatographic hydrophobicity index of the compound at pH 3.7 by HPLC analysis; assay type: ADME
# [32] = tested on: Staphylococcus epidermidis; assay: Antibacterial activity against Staphylococcus epidermidis CCM 7221 assessed as inhibition of bacterial growth incubated for 24 hrs by microdilution assay; assay type: functional
# Staphylococcus aureus [33] = assay: Antibacterial activity against methicillin resistant Staphylococcus aureus 4591/A assessed as reduction in microbial growth incubated for 24 hrs by microdilution assay; assay type: functional
# Escherichia coli [34] = assay: Antibacterial activity against multidrug-resistant Escherichia coli CE5556 expressing CTX-M-15 assessed as reduction in microbial growth incubated for 24 hrs by microdilution assay; assay type: functional
# Enterococcus faecium = assay: Antibacterial activity against vancomycin resistant Enterococcus faecium 419/ANA assessed as reduction in microbial growth incubated for 24 hrs by microdilution assay; assay type: functional
# Pseudomonas aeruginosa [35] = assay: Antibacterial activity against multidrug-resistant Pseudomonas aeruginosa assessed as reduction in microbial growth incubated for 24 hrs by microdilution assay; assay type: functional
# [36] = Cytotoxicity against human HepG2 cells assessed as reduction in cell viability; assay type: toxicity, cell-based
Compound,MIC (Staphylococcus aureus [1]) [mg/L],MIC (Staphylococcus aureus [2]) [mg/L],MIC (Staphylococcus aureus [3]) [mg/L],MIC (Staphylococcus aureus [4]) [mg/L],MIC (Staphylococcus aureus [5]) [mg/L],MIC (Staphylococcus aureus [6]) [mg/L],MIC (Enterococcus faecalis) [mg/L],MIC (Staphylococcus aureus [25]) [mg/L],MIC (Staphylococcus aureus [26]) [mg/L],MIC (Escherichia coli [27]) [mg/L],MIC (Escherichia coli [28]) [mg/L],MIC (Pseudomonas aeruginosa [29]) [mg/L],HC50 at 3 h [30] [µg/mL],CHI [31],MIC [32] [mg/L],MIC (Staphylococcus aureus [33]) [mg/L],MIC (Escherichia coli [34]) [mg/L],MIC (Enterococcus faecium) [mg/L],MIC (Pseudomonas aeruginosa [35]) [mg/L],CC50 [36] [µM],other results
O=C(N[C@H](CO)[C@H](O)c1ccc([N+](=O)[O-])cc1)C(Cl)Cl [CHLORAMPHENICOL],2,2,2,4,2,2,,,,,,,,,,,,,,,MIC (Staphylococcus aureus [7]): 4 mg/L; MIC (Staphylococcus aureus [8]): 4 mg/L; MIC (Staphylococcus aureus [9]): 1 mg/L; MIC (Staphylococcus aureus [10]): 4 mg/L; MIC (Staphylococcus aureus [11]): 4 mg/L; MIC (Staphylococcus aureus [12]): 2 mg/L; MIC (Staphylococcus aureus [13]): 4 mg/L; MIC (Staphylococcus aureus [14]): 2 mg/L; MIC (Staphylococcus aureus [15]): 2 mg/L; MIC (Staphylococcus aureus [16]): 2 mg/L; MIC (Staphylococcus aureus [17]): 2 mg/L; MIC (Staphylococcus aureus [18]): 1 mg/L; MIC (Staphylococcus aureus [19]): 1 mg/L; MIC (Staphylococcus aureus [20]): 4 mg/L; MIC (Staphylococcus aureus [21]): 4 mg/L; MIC (Staphylococcus aureus [22]): 4 mg/L; MIC (Staphylococcus aureus [23]): 2 mg/L; MIC (Staphylococcus aureus [24]): 4 mg/L
CCCCCCCCOP(=O)(CCN(CCN)CCN)OCCCCCCOP(=O)(CCN(CCN)CCN)OCCCCCCCC.Cl.Cl.Cl.Cl.Cl.Cl (stereo not drawn),,,,,,,1,0.5,5,1,1,2,79,43.2,0.5,0.5,1,4,2,80.6,
CCCCC/C=C\CCOP(=O)(CCN(CCCN)CCCN)OCCCCCCOP(=O)(CCN(CCCN)CCCN)OCC/C=C\CCCCC.Cl.Cl.Cl.Cl.Cl.Cl (stereo not drawn),,,,,,,2,0.5,2,1,0.5,2,262,37.5,0.5,1,1,8,2,30.8,
Cl.Cl.Cl.Cl.Cl.Cl.NCCCN(CCCN)CCP(=O)(OCCCCCOP(=O)(CCN(CCCN)CCCN)OCC12CC3CC(CC(C3)C1)C2)OCC12CC3CC(CC(C3)C1)C2 (stereo not drawn),,,,,,,4,2,2,2,2,32,415,34.1,2,2,4,64,8,> 99,
CCCCCCOP(=O)(CCN(CCCNC(=N)N)CCCNC(=N)N)OCCCCCCCCOP(=O)(CCN(CCCNC(=N)N)CCCNC(=N)N)OCCCCCC.Cl.Cl.Cl.Cl.Cl.Cl (stereo not drawn),0.5,0.5,0.5,0.5,0.5,0.5,8,5,0.5,16,2,8,139,31.5,0.5,5,5,16,8,,MIC (Staphylococcus aureus [7]): 0.5 mg/L; MIC (Staphylococcus aureus [8]): 0.25 mg/L; MIC (Staphylococcus aureus [9]): 0.5 mg/L; MIC (Staphylococcus aureus [10]): 0.25 mg/L; MIC (Staphylococcus aureus [11]): 0.5 mg/L; MIC (Staphylococcus aureus [12]): 0.5 mg/L; MIC (Staphylococcus aureus [13]): 0.5 mg/L; MIC (Staphylococcus aureus [14]): 0.5 mg/L; MIC (Staphylococcus aureus [15]): 0.5 mg/L; MIC (Staphylococcus aureus [16]): 0.5 mg/L; MIC (Staphylococcus aureus [17]): 0.5 mg/L; MIC (Staphylococcus aureus [18]): 0.5 mg/L; MIC (Staphylococcus aureus [19]): 0.5 mg/L; MIC (Staphylococcus aureus [20]): 0.5 mg/L; MIC (Staphylococcus aureus [21]): 0.5 mg/L; MIC (Staphylococcus aureus [22]): 0.5 mg/L; MIC (Staphylococcus aureus [23]): 0.5 mg/L; MIC (Staphylococcus aureus [24]): 0.5 mg/L
